Source: PubChem BioAssay AID1963872 (Molecular Pharmacology Branch, DTP, NCI, 2024)
pIC50: −log10 of the molar value.

Test system: KRAS patient-derived spheroids with HUVEC/MSC, viability
Assay: Anticancer human tumor 519858-162-T-J1-PDC patient-derived colon adenocarcinoma cell line growth inhibition [KRAS2]
Conditions: for pIC50: curve of first compound; for viability, T/C: stronger effect = lower value
In short: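 Combination screen of spheroid viability in tumor-cell co-cultures with endothelial (HUVEC) and mesenchymal stem cell stroma. Each agent was tested in half-log dilutions, topping at clinical Cmax or at 10 microM without a known Cmax.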

[1] = second compound 0.1 µM, first compound 0.0316 µM
[2] = second compound 0.1 µM, first compound 0.1 µM
[3] = second compound 0.1 µM, first compound 0.316 µM
[4] = second compound 0.1 µM, first compound 1 µM
[5] = second compound 0.316 µM, first compound 0.0316 µM
[6] = second compound 0.316 µM, first compound 0.1 µM
[7] = second compound 0.316 µM, first compound 0.316 µM
[8] = second compound 0.316 µM, first compound 1 µM
[9] = second compound 1 µM, first compound 0.0316 µM
[10] = second compound 1 µM, first compound 0.1 µM
[11] = second compound 1 µM, first compound 0.316 µM
[12] = second compound 1 µM, first compound 1 µM
[13] = second compound 3.16 µM, first compound 0.0316 µM
[14] = second compound 3.16 µM, first compound 0.1 µM
[15] = second compound 3.16 µM, first compound 0.316 µM
[16] = second compound 3.16 µM, first compound 1 µM
[17] = second compound 10 µM, first compound 0.0316 µM
[18] = second compound 10 µM, first compound 0.1 µM
[19] = second compound 10 µM, first compound 0.316 µM
[20] = second compound 10 µM, first compound 1 µM
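Further: compound exposure lasted seven days before readout.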
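Wherever viability, T/C is given: 100% = DMSO vehicle control viability.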

Compound | pIC50 (second compound 0.1 µM) | pIC50 (second compound 0.316 µM) | pIC50 (second compound 1 µM) | pIC50 (second compound 3.16 µM) | pIC50 (second compound 10 µM) | viability, T/C [1] | viability, T/C [2] | viability, T/C [3] | viability, T/C [4] | viability, T/C [5] | viability, T/C [6] | viability, T/C [7] | viability, T/C [8] | viability, T/C [9] | viability, T/C [10] | viability, T/C [11] | viability, T/C [12] | viability, T/C [13] | viability, T/C [14] | viability, T/C [15] | further results
CCN1CCN(Cc2ccc(Nc3ncc(F)c(-c4cc(F)c5nc(C)n(C(C)C)c5c4)n3)nc2)CC1 + CC1OCC2(CCN(c3cnc(Sc4ccnc(N)c4Cl)c(N)n3)CC2)C1N | 6.13 | < 6.00 | 6.79 | > 8.50 | 7.32 | 103% | 60.1% | 81.7% | 38.7% | 69.1% | 63.2% | 64.2% | 40.6% | 75.5% | 49.4% | 43.1% | 24.3% | 57.9% | 41.7% | 30.9% | viability, T/C (second compound 0.1 µM, first compound 0.00316 µM): 80.7%; viability, T/C (second compound 0.1 µM, first compound 0.01 µM): 79%; viability, T/C (second compound 0.316 µM, first compound 0.00316 µM): 59.2%; viability, T/C (second compound 0.316 µM, first compound 0.01 µM): 63.5%; viability, T/C (second compound 1 µM, first compound 0.00316 µM): 49.9%; viability, T/C (second compound 1 µM, first compound 0.01 µM): 67.8%; viability, T/C (second compound 3.16 µM, first compound 0.00316 µM): 49.7%; viability, T/C (second compound 3.16 µM, first compound 0.01 µM): 40.7%; viability, T/C [16]: 29.4%; viability, T/C (second compound 10 µM, first compound 0.00316 µM): 68.1%; viability, T/C (second compound 10 µM, first compound 0.01 µM): 57.4%; viability, T/C [17]: 48.2%; viability, T/C [18]: 50%; viability, T/C [19]: 39.9%; viability, T/C [20]: 29.2%
CC(C)NCC(C(=O)N1CCN(c2ncnc3c2C(C)CC3O)CC1)c1ccc(Cl)cc1 (stereo not given) + CNCc1ccccc1-c1csc(C(C)Nc2nc(C)nc3cc(OC)c(OC)cc23)c1 | < 5.00 | < 5.00 | < 5.00 | 5.41 | > 7.50 | 88.2% | 81.7% | 94.9% | 93.7% | 88.5% | 91.6% | 76.3% | 88.1% | 81.7% | 76.2% | 71.1% | 73% | 42.8% | 59.8% | 60% | viability, T/C (second compound 0.1 µM, first compound 3.16 µM): 89.2%; viability, T/C (second compound 0.1 µM, first compound 10 µM): 88%; viability, T/C (second compound 0.316 µM, first compound 3.16 µM): 92.5%; viability, T/C (second compound 0.316 µM, first compound 10 µM): 93.1%; viability, T/C (second compound 1 µM, first compound 3.16 µM): 85.2%; viability, T/C (second compound 1 µM, first compound 10 µM): 79.9%; viability, T/C [16]: 58.3%; viability, T/C (second compound 3.16 µM, first compound 3.16 µM): 47.7%; viability, T/C (second compound 3.16 µM, first compound 10 µM): 43.8%; viability, T/C [17]: 0.36%; viability, T/C [18]: 0.39%; viability, T/C [19]: 0.34%; viability, T/C [20]: 0.3%; viability, T/C (second compound 10 µM, first compound 3.16 µM): 0.82%; viability, T/C (second compound 10 µM, first compound 10 µM): 0.78%
